Experimental findings from patent publication US20250339426A1, “GCN2 MODULATOR FOR TREATING CANCER” (HIBERCELL, INC., priority 2022, published 2025) are described below.

Assay [1] concerns OCI-AML2 (human AML cancer cells). The experiment in a line: In vivo tumor growth inhibition, OCI-AML2 xenograft. More on the design: species or system NOD SCID mice. How it is done:
OCI-AML2 (human AML cancer cells): Female 6-8 weeks old NOD SCID mice were inoculated subcutaneously on the right flank with OCI-AML2 tumor cells (5×10^6) in RPMI 1640 without serum for tumor development. The treatments were started when the mean tumor size reached approximately 149 mm^3 at Day 7 after cell inoculation and continued until end of study by twice daily oral gavage dosing of HC-7366 at listed doses (vehicle, 0.3 mg/kg HC-7366, 1 mg/kg HC-7366, 3 mg/kg HC-7366, 10 mg/kg HC-7366, or 30 mg/kg HC-7366, FIG. 19).
(§1) [formula] • 2.2.2 Tumor Measurements: The measurement of tumor size was conducted three times weekly with a caliper and recorded. The tumor volume (mm^3) was estimated using the formula: TV=a×b^2/2, where “a” and “b” is long and short diameters of a tumor, respectively. Tumor volume was calculated using the formula [tumor volume (mm^3)=π/6×length×width^2).
(§2) Regression was calculated using the formula=100×ΔT/T initial, if ΔT<0. Animals with 0 mm^3 tumor volume (no measurable tumor) for three consecutive measurements were considered as complete responders and animals with 50% tumor regressions were partial responders.

Assay [2] concerns MV4-11 (human AML cancer cells). The experiment in a line: In vivo tumor growth inhibition, MV4-11 xenograft. More on the design: species or system BALB/c nude mice. How it is done:
MV4-11 (human AML cancer cells): Female 6-8 weeks old BALB/c nude mice were inoculated subcutaneously on the right flank with MV4-11 tumor cells (1×10^7) in RPMI 1640 without serum for tumor development. The treatments were started when the mean tumor size reached approximately 150 mm^3 at Day 13 after cell inoculation and continued until end of study by twice daily oral gavage dosing of HC-7366 at listed doses (vehicle, 0.3 mg/kg HC-7366, 1 mg/kg HC-7366, 3 mg/kg HC-7366, 10 mg/kg HC-7366, or 30 mg/kg HC-7366, FIG. 20). For venetoclax combination study, venetoclax was dissolved in 0.5% carboxymethylcellulose (CMC) and co-administered at 50 mg/kg dose once daily (see Example 8).
as §1, §2
MV4-11 tumors were collected at the end of the venetoclax combination study described in Example 6. Tumor growth curves are provided of MV4-11 tumors treated with single agent HC-7366 and venetoclax or combination (FIG. 43).

Assay [3] relates to HIF2α and GLUT1 in 786-O tumors. The experiment in a line: Tumor IHC, 786-O tumors (DC101 combination study). Conditions: HC-7366 2 mg/kg twice daily, DC101 15 mg/kg twice a week. Format: in vivo, BALB/c nude mice. How it is done:
786-O (human renal cell carcinoma cancer cells): Female 6-8 weeks old BALB/c nude mice were inoculated subcutaneously on the right flank with 786-O tumor cells (5×10^6) in 0.1 ml of RPMI1640 medium without serum for tumor development. The treatments were started when the mean tumor size reached approximately 189 mm^3 after three weeks post inoculation and continued until end of study by twice daily oral gavage dosing of HC-7366 at listed doses (vehicle or 2 mg/kg HC-7366, FIGS. 52-54). For the DC101 combination study, DC101 (murine monoclonal anti-VEGFR2 antibody) was dosed at 15 mg/kg twice a week by intraperitoneal injection.
Immunohistochemical analysis was carried out on tumors that were collected at the end of the study described in Example 6. […]
Slides were imaged with Aperio Versa 200 (Leica Biosystems) whole-slide scanner using 10×/0.32NA objective, and the data were analyzed using custom-written macros in ImageJ/FIJI (NIH). Briefly, 150 μm of outer edges of the tumor sections and necrotic regions (determined by lack of 4′,6-diamidino-2-phenylindole (DAPI) signal or presence of condensed DNA) were eliminated from the analysis. […] Scans of immune-staining were processed to remove background, then total intensity value above appropriate threshold levels was measured and normalized to tissue area. […]

Assay [4] has as its system FaDu cells. The experiment in a line: CTG viability assay, FaDu sgControl and sgGCN2 cells. Format: cell-based, human. Conditions: 72 or 96 hr. How it is done:
FaDu cells were obtained from ATCC (#HTB-43) and were cultured in Eagle's Minimum Essential Medium, Catalog No. 30-2003 at 37° C. and 5% CO2. FaDu GCN2 CRISPR knockout cells (sgGCN2) or control cells (sgControl) were generated. For viability experiments, cells were plated in 384-well cell culture plates and incubated overnight. Compounds were diluted in 10 concentrations by 3-fold dilution in 384pp-plate using TECAN EVO200 to a final concentration ranging from […]. The plates were incubated for 72 or 96 hr and viability was assessed by adding CellTiter-Glo® 2.0 Assay according to the manufacturer's protocol (Promega, G9243) to each well. The plates were then incubated at RT for 30 min. The luminescent signals were read by Envision (PerkinElmer) plate reader and analyzed by Prism

Assay [5] concerns FaDu cells. The experiment in a line: Metabolomics in wild type and GCN2 CRISPR knockout FaDu cells. The class given is cell-based, human. Conditions: 0.1 μM. How it is done:
Wild type and GCN2 CRISPR knockout FaDu cells were treated with 0.1 μM for 9 hours, and metabolomics were evaluated.

Consider `CNC(=O)c1ncn2cc(-c3c(F)ccc(NS(=O)(=O)c4cc(Cl)cnc4OC)c3F)ncc12` [HC-7366, 6-(3-((5-chloro-2-methoxypyridine)-3-sulfonamido)-2,6-difluorophenyl)-N-methylimidazo[1,5-a]pyrazine-1-carboxamide], for which the TGI entry in assay [1] (10 mg/kg twice daily oral) was “about 47%”; in assay [1] (30 mg/kg twice daily oral), about 51%; in assay [2] (30 mg/kg twice daily oral), 45%; in assay [2] (venetoclax combination study, HC-7366 as a single agent, dose not stated), 34%. Also, in assay [3], the “GLUT1 levels by IHC” value is reported as “significantly reduced”. Moreover, in assay [3] (single agents and combination), the “HIF2α by IHC” value is listed as “significantly decreased”. In the assay with FaDu cells [4] (FaDu control cells), the viability entry is “potently reduced viability”. Moreover, the viability response result with FaDu cells [4] (GCN2 CRISPR knockout cells) is listed as “reversed”. Moreover, the ATF4 result with FaDu cells [5] (GCN2 dependent manner) was “induced”. Also, the “level of many amino acids” value in the assay with FaDu cells [5] (wild type FaDu cells, 9 h, GCN2-dependent) is “enhanced level”.
